Structures can show the parent of a compound that is named as a salt. Where two headings read alike, the source gives them in different places.
What was measured:
[1] = cited from earlier work
[2] = Excerpt: After solubilizing the sugar and the compound in ethanol or aqueous ethanol, the ethanol is evaporated for example under a high rotary vacuum. The powder resulting from the evaporation step is then resolubilized (dissolved) in water. Another solvent can be methanol at 80% methanol, 95% (ACS grade) or greater (to 100% methanol) as well as combinations of methanol and ethanol or methanol and water. After solubilizing the sugar and the compound in ethanol or aqueous ethanol, the ethanol is evaporated for example under a high rotary vacuum. The powder resulting from the evaporation step is then resolubilized (dissolved) in water.
Generally, ingredients are deposited into a sealed container with ethanol and vortex-mixed to form a solution. The solution is subjected to centrifugation. The ethanol is evaporated off and the dried mixture was dissolved in water. This mixture is centrifuged again and the supernatant is filtered through a membrane. […] In one embodiment, the admixing process involves dissolving the PSD and sugar in the ethanol while stirring and adjusting the pH as necessary to obtain complete dissolution and a clear reaction mixture. The reaction mixture can then be dried to remove the ethanol. No further water washing or filtering is needed.
In this example, an oven-dried single-neck RB flask equipped with a magnetic stir bar was used. […] The reaction mixture was vigorously stirred at room temperature for 30 min at 20° C. […] The white solid was dried using vacuum drying performed at room temperature and a high vacuum pump for about one hour to remove the ethanol (EtOH) completely using an Edvards Model #RV8 […], a Heidolph type Basis Hei-VAP Value, No. 560-00000-0101. The high vacuum pump was connected to a cooling trap and the trap was connected to the RB flask. Vacuum strength was about 1 mm Hg.
The white foamy solid was dried over a high vacuum at room temperature for an additional hour to remove the water completely, by ascertaining changes in weight loss. Drying continued until further weight loss was not observed.
Step 1: In an oven-dried single neck RB flask equipped with magnetic stir and septa (flask cap), 5 mg sildenafil (0.01054 mmol) and 16.95 mg stevioside (1:2 molar ratio) were weighed into the RB flask and dissolved in 85% ethanol (˜2.0 mL, denatured 85% ethanol) at ambient temperature. The reaction mixture was vigorously stirred at room temperature for 30 min. […] The white solid was dried over a high vacuum for an hour to remove the ethanol completely (no further reduction in weight was observed).
Step 2: The obtained white solid was then dissolved in 2.0 mL water at room temperature in an RB flask with a magnetic stir bar. The reaction mixture was stirred at ambient temperature for 30 min. […] The white foamy solid was dried over a high vacuum at room temperature for an additional hour to remove the water completely. The weight of the flask was checked while drying until no further weight loss was observed.

[3] = Non-caloric sugar solubility in water and 95% ethanol
Method: In this experiment, the following sugars were compared for solubility: rubusoside, dulcoside A, rebaudioside B, dulcoside B, and rebaudioside D. Approximately 5.0 mg of each sugar was attempted to be dissolved in 0.6 mL water and vortexed for 2 minutes at room temperature.
In another experiment, 50 mg stevia was dissolved in either 2.0 mL water or 2.0 mL 95% ethanol.

[4] = cited from earlier work; remark: listed apart in the source
[5] = approximately 5.0 mg in 0.6 mL water, vortexed 2 minutes, room temperature

## Nc1nc2c(ncn2COCCO)c(=O)[nH]1 [Acyclovir]
[1]; drug alone
  water solubility: less than 1 mg/mL

## CCCCC[C@H](O)/C=C/[C@H]1[C@H](O)CC(=O)[C@@H]1CCCCCCC(=O)O [Alprostadil, (1R,2R,3R)-3-Hydroxy-2-[(E)-(3S)-3-hydroxy-1-octenyl]-5-oxocyclopentane heptanoic acid]
[2]
  solubility of the complex in water by NMR: 100%
[1]
  solubility in DMSO: soluble
[1]; distilled water
  solubility in distilled water: 8000 μg per 100 mL
[1]; drug alone
  solubility in water: insoluble
  water solubility: less than 1 mg/mL
[1]; printed over two lines: nearly / insoluble
  solubility in ethanol, ether and ethyl acetate: insoluble in ethanol, ether

## COc1ccc(CN=c2[nH]c(N3CCC[C@H]3CO)ncc2C(=O)NCc2ncccn2)cc1Cl [Avanafil, 4-[(3-chloro-4-methoxyphenyl)methylamino]-2-[(2S)-2-(hydroxymethyl)pyrrolidin-1-yl]-N-(pyrimidin-2-ylmethyl)pyrimidine-5-carboxamide]
[2]
  solubility in water by NMR: 100%
[1]; at 25° C.
  solubility in DMSO: Soluble in DMSO (97 mg/ml
[1]
  solubility in DMSO: soluble

## O=C(CO)[C@@H](O)[C@H](O)[C@H](O)CO [D-fructose]
[3]; Example 22, 200 mg, 20° C.
  solubility of the sugar in 95% ethanol (observation): not soluble
  solubility of the sugar in water (observation): soluble
[4]
  Sugar Solubility in 95% EtOH: Insoluble

## CC(=O)O[C@H]1C(=O)[C@@]2(C)[C@H]([C@H](OC(=O)c3ccccc3)[C@]3(O)C[C@H](OC(=O)[C@H](O)[C@@H](NC(=O)c4ccccc4)c4ccccc4)C(C)=C1C3(C)C)[C@]1(OC(C)=O)CO[C@@H]1C[C@@H]2O [Paclitaxel]
[2]
  Solubility of Paclitaxel In Ethanol, With Rubusoside: Soluble
  Solubility of Paclitaxel In Water after first being dissolved in EtOH, With Rubusoside: Insoluble
  Solubility of Paclitaxel In Water, With Rubusoside: Insoluble

## CC1(C)S[C@@H]2[C@H](NC(=O)COc3ccccc3)C(=O)N2[C@H]1C(=O)O [Penicillin V HCl, phenoxymethylpenicillinic acid]
[2]
  Solubility In 95% Ethanol, With Rubusoside (table of Example 25): Soluble
  Solubility In Water after first being dissolved in EtOH, With Rubusoside (table of Example 25): Soluble
  Solubility In Water, With Rubusoside (table of Example 25): Soluble
  Solubility of Penicillin V HCl In Ethanol, With Rubusoside: Soluble
  Solubility of Penicillin V HCl In Water after first being dissolved in EtOH, With Rubusoside: Soluble
  Solubility of Penicillin V HCl In Water, With Rubusoside: Soluble
[1]; Example 24
  Solubility of Penicillin V HCl In Ethanol, Without Rubusoside: Soluble
  Solubility of Penicillin V HCl In Water, Without Rubusoside: 0.636 mg/mL or at
[1]; Example 24, pH 1.8 acidified with HCl
  Solubility of Penicillin V HCl In Water, Without Rubusoside: HCl at 24 mg/100 mL
[1]; Example 25 (acyclovir and rubusoside), at 55° C.
  Solubility In Water, Without Rubusoside (table of Example 25): 1 mg/mL at 55 °C
[1]; Example 25 (acyclovir and rubusoside), at pH 1.8
  Solubility In Water, Without Rubusoside (table of Example 25): 24 mg/100 mL at
[1]; Example 25 (acyclovir and rubusoside)
  Solubility In 95% Ethanol, Without Rubusoside (table of Example 25): Soluble

## C=C1C[C@@]23CC[C@H]4[C@@](C)(CCC[C@@]4(C)C(=O)O[C@@H]4O[C@H](CO)[C@@H](O)[C@H](O)[C@H]4O)[C@@H]2CC[C@]1(O[C@@H]1O[C@H](CO)[C@@H](O)[C@H](O)[C@H]1O)C3 [Rubusoside]
[3]; [5]
  solubility of the sugar in water (observation): No undissolved
[4]
  Sugar Solubility in 95% EtOH: 10000 µg/mL
  Sugar Solubility in Water: Soluble

## C=C1C[C@@]23CC[C@H]4[C@@](C)(CCC[C@@]4(C)C(=O)O[C@@H]4O[C@H](CO)[C@@H](O)[C@H](O)[C@H]4O)[C@@H]2CC[C@]1(O[C@@H]1O[C@H](CO)[C@@H](O)[C@H](O)[C@H]1O[C@@H]1O[C@H](CO)[C@@H](O)[C@H](O)[C@H]1O)C3 [Stevioside]
[4]
  Sugar Solubility in 95% EtOH: 30000 µg/mL
  Sugar Solubility in Water: 4 g/L

## CN1CC(=O)N2[C@H](c3ccc4c(c3)OCO4)c3[nH]c4ccccc4c3C[C@@H]2C1=O [Tadalafil, (2R,8R)-2-(1,3-benzodioxol-5-yl)-6-methyl-3,6,17-triazatetracyclo[8.7.0.0^3, 8.0^11, 16]heptadeca-1(10),11,13,15-tetraene-4,7-dione]
[2]
  improvement in water solubility: ~2.3%
[2]; Example 31, Tadalafil:Tween 80 1:5 molar, after 3 minutes
  appearance of the dried gel in water: white and turbid solution
[2]; Example 31, tadalafil:P188:stevioside 1:10:5 molar
  appearance of the dried mixture in 3 mL water: white turbid solution
[2]; Example 31, tadalafil:P-188 1:10
  appearance of the dried mixture in water: turbid solution
[2]; Example 31, tadalafil:Tween 20 1:5 molar
  appearance of the dried mixture in 2.0 mL water: white turbid solution with solids still visible
[2]; Example 31, tadalafil:glycerol:stevioside 1:20:5
  appearance of the dried mixture in 3.0 mL water: white turbid solution
[2]; Example 31, tadalafil:glycerol:stevioside 1:20:5, 10 mg citric acid monohydrate, pH about 3.0
  low-intensity drug peaks by NMR: 2-3%
[2]; Example 31, tadalafil:glycerol:stevioside 1:30:5, citric acid, pH about 3.0
  appearance of the dried mixture in 3.0 mL water: white turbid
[2]; Example 31, tadalafil:stevioside 1:3 molar, citric acid in step 1
  appearance of the dried mixture in water: white turbid solution
[2]; Example 31, tadalafil:stevioside 1:10 molar, buffer pH 9.4 added in water
  appearance of the dried powder in 2 mL water: white turbid solution
[2]; Example 31, tadalafil:stevioside 1:10 molar, carbonate buffer pH 9.4 in step 1
  appearance of the dried mixture in water: white and turbid
[2]; pH 2.5
  solubility of the complex in water: not 100% soluble
[1]; at 25° C.
  solubility in water: 220 mg/L at 25 °C in water
[1]
  solubility in chloroform: soluble

## CCCOc1ccc(S(=O)(=O)NCCC2CCCN2C)cc1-c1nc2c(CCC)nn(C)c2c(=O)[nH]1 (stereo not shown) [Udenafil]
[1]
  solubility in DMSO: soluble
[1]; drug alone
  water solubility: about 0.0798 mg/mL

## CCCc1nc(C)c2c(=O)[nH]c(-c3cc(S(=O)(=O)N4CCN(CC)CC4)ccc3OCC)nn12 [Vardenafil HCl]
[2]
  solubility of the complex in water by NMR: 100%
[1]; at 28° C., solids remain present at 22° C.
  solubility in DMSO: soluble
[1]
  solubility in chloroform: insoluble

## CCCc1nc(C)c2c(=O)[nH]c(-c3cc(S(=O)(=O)N4CCN(CC)CC4)ccc3OCC)nn12 [Vardenafil, 2-[2-ethoxy-5-(4-ethylpiperazin-1-yl)sulfonylphenyl]-5-methyl-7-propyl-3H-imidazo[5,1-f][1,2,4]triazin-4-one]
[1]; at 25° C., Estimated
  solubility in water: 3.5 mg/L at 25° C./

## C=C1C[C@@]23CC[C@H]4[C@@](C)(CCC[C@@]4(C)C(=O)O[C@@H]4O[C@H](CO)[C@@H](O)[C@H](O)[C@H]4O)[C@@H]2CC[C@]1(O[C@@H]1O[C@H](CO)[C@@H](O)[C@H](O[C@@H]2O[C@H](CO)[C@@H](O)[C@H](O)[C@H]2O)[C@H]1O[C@@H]1O[C@@H](C)[C@H](O)[C@@H](O)[C@H]1O)C3 [dulcoside B]
[3]; [5]
  solubility of the sugar in water (observation): partially soluble
[4]
  Sugar Solubility in 95% EtOH: Slightly soluble
  Sugar Solubility in Water: Partly soluble

## C[C@]12C=CC(=O)C=C1CC[C@@H]1[C@@H]2C(=O)C[C@@]2(C)[C@H]1CC[C@]2(O)C(=O)CO [prednisone]
[2]; Example 23, rubusoside 50 mg : prednisone 5 mg
  appearance of the dried powder re-dissolved in 2 mL deionized water: white turbid mixture

## OC[C@H]1O[C@@](CO)(O[C@H]2O[C@H](CO)[C@@H](O)[C@H](O)[C@H]2O)[C@@H](O)[C@@H]1O [sucrose]
[4]
  Sugar Solubility in 95% EtOH: Insoluble
  Sugar Solubility in Water: 204 g/100 g water

## C[C@]12CC[C@H]3[C@@H](CCC4=CC(=O)CC[C@@]43C)[C@@H]1CC[C@@H]2OC(=O)CCC1CCCC1 [testosterone cypionate]
[2]; rubusoside 23.4 mg : testosterone cypionate 5 mg (3:1 sugar-to-drug)
  appearance of the dried mixture dissolved in water: white turbid solution
[2]; testosterone cypionate:stevioside 1:10 molar
  appearance of the dried powder in 2 mL water: white-turbid solution

— patent publication US12115222B2, “Compositions and methods for improving the solubility of erectile dysfunction therapeutics” (Villya LLC, priority 2023, dated 2024)
